# Measurements reported in patent publication EP4562003B1, “NOVEL 7-SUBSTITUTED INDOLE SULFONAMIDE DERIVATIVES” (F. Hoffmann-La Roche AG, priority 2022, dated 2024).
# Target: human GPR17 short isoform (Homo sapiens, UniProt Q13304)
# Assay: GPR17 cAMP assay (TR-FRET cAMP quantification, antagonist mode)
# Assay type: cell-based
# Conditions: CHO-K1 cells stably expressing human GPR17 short isoform; EC80 of agonist MDL29,951; forskolin 15µM; IBMX 0.5mM; 30 minutes at room temperature; read-out: hGPR17 cAMP IC50
# Method in brief: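 CHO-K1 cells stably expressing untagged human GPR17 short isoform, 10'000 cells/well in HBSS/10mM HEPES/0.1% BSA pH 7.4. Compounds added with EC80 MDL29,951 plus 0.5mM IBMX, then 15µM forskolin; 30 min at room temperature. cAMP read by TR-FRET after 90 min lysis; normalized to reference antagonist maximal activity, sigmoidal fit.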
# Chain of human GPR17 short isoform (Q13304 29-367): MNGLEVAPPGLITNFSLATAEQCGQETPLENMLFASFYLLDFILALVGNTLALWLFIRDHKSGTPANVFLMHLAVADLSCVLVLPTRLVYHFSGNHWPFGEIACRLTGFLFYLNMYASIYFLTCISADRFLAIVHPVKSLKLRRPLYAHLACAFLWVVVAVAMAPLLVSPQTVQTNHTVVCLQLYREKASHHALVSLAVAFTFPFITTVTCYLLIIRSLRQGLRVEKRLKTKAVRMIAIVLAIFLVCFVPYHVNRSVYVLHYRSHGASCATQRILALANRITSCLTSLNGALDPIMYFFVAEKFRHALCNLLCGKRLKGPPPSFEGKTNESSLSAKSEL
row,Structure (SMILES),IC50 [nM]
1,"COc1nc(NS(=O)(=O)c2c[nH]c3c(-c4ncccn4)cccc23)nc(OC)c1CC(F)F [Example 17, N-[5-(2,2-difluoroethyl)-4,6-dimethoxy-pyrimidin-2-yl]-7-(2-pyrimidyl)-1H-indole-3-sulfonamide]",806
2,"COc1nc(NS(=O)(=O)c2c[nH]c3c(-c4ccccc4)c(Cl)ccc23)nc(OC)c1OCC(F)F [Example 70, 6-chloro-N-[5-(2,2-difluoroethoxy)-4,6-dimethoxy-pyrimidin-2-yl]-7-phenyl-1H-indole-3-sulfonamide]",102
3,"COc1nc(NS(=O)(=O)c2c[nH]c3c(-c4ncccn4)c(Cl)ccc23)nc(OC)c1Br [Example 75, N-(5-bromo-4,6-dimethoxy-pyrimidin-2-yl)-6-chloro-7-(2-pyrimidyl)-1H-indole-3-sulfonamide]",135

# More lines, now with the values ahead:
row,IC50 [nM],Structure (SMILES)
1,46,"COc1nc(NS(=O)(=O)c2c[nH]c3c(-c4ncc5n4CCC5)cccc23)nc(OC)c1CC(F)F [Example 121, N-[5-(2,2-difluoroethyl)-4,6-dimethoxy-pyrimidin-2-yl]-7-(6,7-dihydro-5H-pyrrol[1,2-c]imidazol-3-yl)-1H-indole-3-sulfonamide]"
2,21,"COc1nc(NS(=O)(=O)c2c[nH]c3c(-c4ccncn4)c(Cl)ccc23)nc(OC)c1CC(F)F [Example 76, 6-chloro-N-[5-(2,2-difluoroethyl)-4,6-dimethoxy-pyrimidin-2-yl]-7-(4-pyrimidyl)-1H-indole-3-sulfonamide]"
